The compounds below were run against human GPR43 (Homo sapiens (Human), UniProt O15552) (assay: Ca-Flux functional assay: determination of agonist/positive allosteric modulator (PAM) activity). Conditions: CHO-K1 Gα16 cells stably expressing human GPR43; compound added with EC20 sodium acetate; intracellular Ca2+ by FLIPR; does not distinguish agonist from PAM.
Type: cell-based
How it was run: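 Agonist or PAM activity read as intracellular Ca2+ rise by FLIPR after adding compound plus EC20 acetate, acetate EC20 set from a prior curve. Cells: CHO-K1 Gα16 with stable human GPR43. EC50 from ten-point half-log curves starting 10 μM.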

Sequence of human GPR43 (O15552 whole entry): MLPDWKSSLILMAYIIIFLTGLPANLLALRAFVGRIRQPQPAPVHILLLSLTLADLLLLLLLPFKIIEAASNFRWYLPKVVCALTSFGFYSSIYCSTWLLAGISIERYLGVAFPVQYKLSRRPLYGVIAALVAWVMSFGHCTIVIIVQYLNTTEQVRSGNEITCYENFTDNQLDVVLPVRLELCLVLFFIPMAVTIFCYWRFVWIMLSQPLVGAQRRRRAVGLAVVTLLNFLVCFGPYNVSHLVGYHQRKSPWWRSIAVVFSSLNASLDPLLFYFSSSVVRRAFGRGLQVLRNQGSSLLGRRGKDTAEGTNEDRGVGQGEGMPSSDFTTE

Row | EC50 [nM] | SMILES
1 | 93 | Nc1[nH]c2c(N3CCO[C@@H](c4ccccc4)C3)ncnc2c1S(=O)(=O)c1ccccc1 [Example 134, 7-(benzenesulfonyl)-4-[(2S)-2-phenylmorpholin-4-yl]-5H-pyrrolo[3,2-d]pyrimidin-6-amine]
2 | 19 | Nc1[nH]c2c(N3CCC(F)(F)CC3)ncnc2c1S(=O)(=O)c1ccccc1 [Example 24, 7-(benzenesulfonyl)-4-(4,4-difluoropiperidin-1-yl)-5H-pyrrolo[3,2-d]pyrimidin-6-amine]
3 | 6620 | COCCOc1ncnc2c(S(=O)(=O)c3ccccc3)c(N)[nH]c12 [Example 174, 7-(benzenesulfonyl)-4-(2-methoxyethoxy)-5H-pyrrolo[3,2-d]pyrimidin-6-amine]
4 | 40 | CC1(C)CN(c2ccnc3c(S(=O)(=O)c4ccccc4)c(N)[nH]c23)CCO1 [Example 277, 3-(benzenesulfonyl)-7-(2,2-dimethylmorpholin-4-yl)-H-pyrrolo[3,2-b]pyridin-2-amine]
5 | 1400 | Cc1csc(COc2ncnc3c(S(=O)(=O)c4ccccc4)c(N)[nH]c23)n1 [Example 161, 7-(benzenesulfonyl)-4-[(4-methyl-1,3-thiazol-2-yl)methoxy]-5H-pyrrolo[3,2-d]pyrimidin-6-amine]
6 | 6260 | Cc1nc(COc2ncnc3c(S(=O)(=O)c4ccccc4)c(N)[nH]c23)c(C)o1 [Example 163, 7-(benzenesulfonyl)-4-[(dimethyl-1,3-oxazol-4-yl)methoxy]-5H-pyrrolo[3,2-d]pyrimidin-6-amine]
7 | 625 | CC1CN(c2ncnc3c(S(=O)(=O)c4cccnc4)c(N)[nH]c23)CCO1 (stereo not shown) [Example 122, 4-(2-methylmorpholin-4-yl)-7-(pyridine-3-sulfonyl)-5H-pyrrolo[3,2-d]pyrimidin-6-amine]
8 | 9 | Cc1nc(N2CCC3(CC2)CC3)c2[nH]c(N)c(S(=O)(=O)c3ccccc3F)c2n1 [Example 214, 4-{6-azaspiro[2.5]octan-6-yl}-7-(2-fluorobenzenesulfonyl)-2-methyl-5H-pyrrolo[3,2-d]pyrimidin-6-amine]
9 | 64 | CC[C@H](C)Oc1nc(C)nc2c(S(=O)(=O)c3ccccc3)c(N)[nH]c12 [Example 246, 7-(benzenesulfonyl)-4-[(2S)-butan-2-yloxy]-2-methyl-5H-pyrrolo[3,2-d]pyrimidin-6-amine]
10 | 2660 | CCN(CC1CCOCC1)c1ncnc2c(S(=O)(=O)c3ccccc3)c(N)[nH]c12 [Example 188, 7-(benzenesulfonyl)-4-N-ethyl-4-N-(oxan-4-ylmethyl)-5H-pyrrolo[3,2-d]pyrimidine-4,6-diamine]
11 | 88 | CC1CN(c2ncnc3c(S(=O)(=O)c4cc(F)cc(F)c4)c(N)[nH]c23)CCO1 (stereo not shown) [Example 147, 7-(3,5-difluorobenzenesulfonyl)-4-(2-methylmorpholin-4-yl)-5H-pyrrolo[3,2-d]pyrimidin-6-amine]
12 | 115 | COc1ccc(S(=O)(=O)c2c(N)[nH]c3c(N4CCOC(C)C4)ncnc23)cc1Cl (stereo not shown) [Example 123, 7-(3-chloro-4-methoxybenzenesulfonyl)-4-(2-methylmorpholin-4-yl)-5H-pyrrolo[3,2-d]pyrimidin-6-amine]
13 | 8 | COc1nc(N2CCOC(C)C2)c2[nH]c(N)c(S(=O)(=O)c3ccccc3F)c2n1 (stereo not shown) [Example 271, 7-(2-fluorobenzenesulfonyl)-2-methoxy-4-(2-methylmorpholin-4-yl)-5H-pyrrolo[3,2-d]pyrimidin-6-amine]
14 | 33 | COc1ccc(S(=O)(=O)c2c(N)[nH]c3c(N4CCOC(C)(C)C4)ncnc23)cc1 [Example 129, 4-(2,2-dimethylmorpholin-4-yl)-7-(4-methoxybenzenesulfonyl)-5H-pyrrolo[3,2-d]pyrimidin-6-amine]
15 | 15 | COc1ccc(S(=O)(=O)c2c(N)[nH]c3c(N4CCCC(C)C4)ncnc23)cc1 (stereo not shown) [Example 106, 7-(4-methoxybenzenesulfonyl)-4-(3-methylpiperidin-1-yl)-5H-pyrrolo[3,2-d]pyrimidin-6-amine]
16 | 6 | Cc1nc(N2C[C@@H](C)OC[C@H]2C)c2[nH]c(N)c(S(=O)(=O)c3ccccc3)c2n1 [Example 217, 7-(benzenesulfonyl)-4-[(2R,5R)-2,5-dimethylmorpholin-4-yl]-2-methyl-5H-pyrrolo[3,2-d]pyrimidin-6-amine]
17 | 72 | Cc1cc(C)n(-c2ncnc3c(S(=O)(=O)c4ccccc4)c(N)[nH]c23)n1 [Example 140, 7-(benzenesulfonyl)-4-(3,5-dimethyl-1H-pyrazol-1-yl)-5H-pyrrolo[3,2-d]pyrimidin-6-amine]
18 | 7 | Cc1nc(N2CCOC(C)C2)c2[nH]c(N)c(S(=O)(=O)c3cc(F)ccc3F)c2n1 (stereo not shown) [Example 229, 7-(2,5-difluorobenzenesulfonyl)-2-methyl-4-(2-methylmorpholin-4-yl)-5H-pyrrolo[3,2-d]pyrimidin-6-amine]
19 | 933 | Nc1[nH]c2c(N3CCCC4(COC4)C3)ncnc2c1S(=O)(=O)c1ccccc1 [Example 150, 7-(benzenesulfonyl)-4-{2-oxa-6-azaspiro[3.5]nonan-6-yl}-5H-pyrrolo[3,2-d]pyrimidin-6-amine]
20 | 21 | Nc1[nH]c2c(C3CCCC3)ncnc2c1S(=O)(=O)c1ccccc1F [Example 88, 4-cyclopentyl-7-(2-fluorobenzenesulfonyl)-5H-pyrrolo[3,2-d]pyrimidin-6-amine]
21 | 50 | Nc1[nH]c2c(OCC3CCCC3)ncnc2c1S(=O)(=O)c1ccccc1 [Example 201, 7-(benzenesulfonyl)-4-(cyclopentylmethoxy)-5H-pyrrolo[3,2-d]pyrimidin-6-amine]
22 | 25 | COc1ccc(S(=O)(=O)c2c(N)[nH]c3c(C4=CCCCC4)ncnc23)cc1 [Example 4, 4-(cyclohex-1-en-1-yl)-7-[(4-methoxybenzene)sulfonyl]-5H-pyrrolo[3,2-d]pyrimidin-6-amine]
23 | 73 | Nc1[nH]c2c(C3=CCCC3)ncnc2c1S(=O)(=O)c1ccccc1 [Example 22, 7-(benzenesulfonyl)-4-(cyclopent-1-en-1-yl)-5H-pyrrolo[3,2-d]pyrimidin-6-amine]
24 | 858 | CCOC1CCCN(c2ncnc3c(S(=O)(=O)c4ccccc4)c(N)[nH]c23)C1 (stereo not shown) [Example 113, 7-(benzenesulfonyl)-4-(3-ethoxypiperidin-1-yl)-5H-pyrrolo[3,2-d]pyrimidin-6-amine]
25 | 58 | CCc1nc(C2CCCCC2)c2[nH]c(N)c(S(=O)(=O)c3ccccc3)c2n1 [Example 53, 7-(benzenesulfonyl)-4-cyclohexyl-2-ethyl-5H-pyrrolo[3,2-d]pyrimidin-6-amine]
26 | 1580 | Nc1[nH]c2c(OCC3CCCOC3)ncnc2c1S(=O)(=O)c1ccccc1 (stereo not shown) [Example 157, 7-(benzenesulfonyl)-4-(oxan-3-ylmethoxy)-5H-pyrrolo[3,2-d]pyrimidin-6-amine]
27 | 50 | Nc1[nH]c2c(OC3CCCC3)ncnc2c1S(=O)(=O)c1ccccc1 [Example 202, 7-(benzenesulfonyl)-4-(cyclopentyloxy)-5H-pyrrolo[3,2-d]pyrimidin-6-amine]
28 | 4 | COc1ccc(F)c(S(=O)(=O)c2c(N)[nH]c3c(N4CCOC(C)C4)nc(C)nc23)c1 (stereo not shown) [Example 267, 7-(2-fluoro-5-methoxybenzenesulfonyl)-2-methyl-4-(2-methylmorpholin-4-yl)-5H-pyrrolo[3,2-d]pyrimidin-6-amine]
